We go through one molecule from US20260053764A1, “COMPOSITION FOR PREVENTING DETERIORATION IN COGNITIVE FUNCTION AND/OR IMPROVING COGNITIVE FUNCTION” (PHARMA FOODS INTERNATIONAL CO., LTD., priority 2020, published 2026).

The subject of the experiment is IGF-1 (insulin-like growth factor-1). Nature of the experiment: Blood test, IGF-1 concentration in blood. It is filed as in vivo, human. To be noted: 200 mg ingestion test. The source says: While there are still many unclear points regarding the biochemical mechanism regarding reduction in cognitive function, the IGF-1 (insulin-like growth factor-1) level in blood is known to be reduced by aging. […] In one embodiment of the present disclosure, the composition of the present disclosure can be a composition for suppressing reduction in cognitive function and/or improving the cognitive function through elevation of the IGF-1 concentration in blood.
Among the 120 subjects in Example 1, a total of six blood tests were carried out to the total of 60 subjects who participated in test, wherein blood tests were carried out upon screening, before starting test food ingestion, after four weeks of ingestion, after eight weeks of ingestion, after twelve weeks of ingestion and four weeks after ending ingestion, as shown with ● in the test schedule in Table 1.

`NCCCC(=O)O` [GABA, γ-aminobutyric acid] yielded an IGF-1 (blood, before ingestion, mean ± SD) of 71.0 ± 21.5 ng/mL. Moreover, the “IGF-1 in the group that ingested GABA” value (vs. before ingestion) is recorded as “tendency of increase”.
